Each structure is given as a SMILES string.

Assay [1] concerns the target Vascular endothelial growth factor receptor 3 (Homo sapiens, UniProt P35916). As to the kind of experiment: Inhibition of VEGFR3.
Assay [2] addresses Vascular endothelial growth factor receptor 2 (Homo sapiens, UniProt P35968). As to the kind of experiment: Inhibition of VEGFR2.
For assay [3], the target named is Epidermal growth factor receptor (Homo sapiens, UniProt P00533). As to the kind of experiment: Inhibition of EGFR.
Sequence of Epidermal growth factor receptor (P00533 whole entry): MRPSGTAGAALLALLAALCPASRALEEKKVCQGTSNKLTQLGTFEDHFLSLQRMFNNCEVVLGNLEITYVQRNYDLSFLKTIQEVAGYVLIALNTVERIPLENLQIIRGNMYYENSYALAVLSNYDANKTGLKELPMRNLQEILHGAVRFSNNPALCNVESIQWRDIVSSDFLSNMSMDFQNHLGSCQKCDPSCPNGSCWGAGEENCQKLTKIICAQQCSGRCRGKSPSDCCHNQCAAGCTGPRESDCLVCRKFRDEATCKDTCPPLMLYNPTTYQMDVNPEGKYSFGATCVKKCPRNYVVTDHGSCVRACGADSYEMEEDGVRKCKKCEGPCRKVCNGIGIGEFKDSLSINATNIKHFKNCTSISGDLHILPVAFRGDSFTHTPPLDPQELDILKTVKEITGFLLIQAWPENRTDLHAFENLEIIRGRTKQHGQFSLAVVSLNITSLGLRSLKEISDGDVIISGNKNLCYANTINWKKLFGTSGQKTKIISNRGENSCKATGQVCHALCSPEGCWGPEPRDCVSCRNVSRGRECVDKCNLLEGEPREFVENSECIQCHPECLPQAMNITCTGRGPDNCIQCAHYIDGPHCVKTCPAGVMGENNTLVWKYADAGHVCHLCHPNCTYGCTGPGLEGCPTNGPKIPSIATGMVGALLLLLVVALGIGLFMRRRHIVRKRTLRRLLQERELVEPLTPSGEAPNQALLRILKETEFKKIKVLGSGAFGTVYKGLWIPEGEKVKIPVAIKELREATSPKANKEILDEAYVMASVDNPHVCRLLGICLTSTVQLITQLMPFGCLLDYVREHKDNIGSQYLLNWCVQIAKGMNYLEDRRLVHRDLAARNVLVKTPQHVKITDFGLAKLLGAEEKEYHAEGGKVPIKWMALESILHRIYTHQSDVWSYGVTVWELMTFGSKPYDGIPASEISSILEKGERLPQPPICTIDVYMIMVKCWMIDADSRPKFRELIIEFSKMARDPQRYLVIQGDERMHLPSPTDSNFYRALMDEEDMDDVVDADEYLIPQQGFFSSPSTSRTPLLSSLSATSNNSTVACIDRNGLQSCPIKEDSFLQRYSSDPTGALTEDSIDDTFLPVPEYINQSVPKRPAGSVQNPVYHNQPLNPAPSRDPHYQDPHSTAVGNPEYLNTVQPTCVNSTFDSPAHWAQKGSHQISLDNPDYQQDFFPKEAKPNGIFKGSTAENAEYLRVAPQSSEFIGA
Assay [4] addresses Insulin-like growth factor 1 receptor (Homo sapiens, UniProt P08069). As to the kind of experiment: Inhibition of IGF1R.
For assay [5], the target named is Serine/threonine-protein kinase PLK1 (Homo sapiens, UniProt P53350). As to the kind of experiment: Inhibition of human PLK1.
The target in a further assay is LIM domain kinase 1 (Homo sapiens, UniProt P53667). As to the kind of experiment: Inhibition of human LIMK1.
Assay [6] deals with Dual specificity tyrosine-phosphorylation-regulated kinase 1A (Homo sapiens, UniProt Q13627). Description: Inhibition of human DYRK1A.
Assay [7] has as its target Serine/threonine-protein kinase VRK1 (Homo sapiens, UniProt Q99986). As to the kind of experiment: Inhibition of human VRK1.
For assay [8], the target named is Homeodomain-interacting protein kinase 1 (Homo sapiens, UniProt Q86Z02). Description: Inhibition of human HIPK1.
For assay [9], the target named is Mitogen-activated protein kinase 14 (Homo sapiens, UniProt Q16539). Description: Inhibition of human p38-alpha.
Another assay deals with Insulin receptor (Homo sapiens, UniProt P06213). Description: Inhibition of human InsR.
Assay [10] addresses Tyrosine-protein kinase ABL2 (Homo sapiens, UniProt P42684). Description: Inhibition of human ABL2.
The target of assay [11] is Mitogen-activated protein kinase 3 (Homo sapiens, UniProt P27361). Description: Inhibition of human ERK1.
In assay [12] the target is Protein kinase C iota type (Homo sapiens, UniProt P41743). Description: Inhibition of human PKC-iota.
Assay [13] addresses Protein kinase C gamma type (Homo sapiens, UniProt P05129). As to the kind of experiment: Inhibition of human PKC-gamma.
Assay [14] has as its target Serine/threonine-protein kinase Nek3 (Homo sapiens, UniProt P51956). As to the kind of experiment: Inhibition of human Nek3.
Assay [15] deals with Tyrosine-protein kinase ABL1 (Homo sapiens, UniProt P00519). Description: Inhibition of human ABL1.
Another assay has as its target CDK6/cyclin D1 (Homo sapiens, UniProt Q00534). Description: Inhibition of human CDK6/Cyclin D1. The class given is protein-complex assay.
Assay [16] has as its target Insulin receptor-related protein (Homo sapiens, UniProt P14616). Description: Inhibition of human InsRR.
Another assay addresses Aurora kinase C (Homo sapiens, UniProt Q9UQB9). As to the kind of experiment: Inhibition of human Aurora C.
Assay [17] addresses Interleukin-1 receptor-associated kinase 1 (Homo sapiens, UniProt P51617). Description: Inhibition of human IRAK1.
Assay [18] concerns the target Dual specificity protein kinase CLK1 (Homo sapiens, UniProt P49759). As to the kind of experiment: Inhibition of human CLK1.
In a further assay the target is Wee1-like protein kinase (Homo sapiens, UniProt P30291). Description: Inhibition of human WEE1.
Assay [19] has as its target Cyclin-dependent kinase 4/cyclin D1 (Homo sapiens, UniProt P11802). As to the kind of experiment: Inhibition of human CDK4/Cyclin D1. In kind it is protein-complex assay.
The target in another assay is Misshapen-like kinase 1 (Homo sapiens, UniProt Q8N4C8). Description: Inhibition of human INK1.
Another assay addresses Focal adhesion kinase 1 (Homo sapiens, UniProt Q05397). Description: Inhibition of human FAK.
For the next assay, the target named is Aurora kinase A (Homo sapiens, UniProt O14965). As to the kind of experiment: Inhibition of human Aurora A.
For assay [20], the target named is Cyclin-dependent kinase 5/CDK5 activator 1 (Homo sapiens, UniProt Q00535). As to the kind of experiment: Inhibition of human CDK5/p25. In kind it is protein-complex assay.
Another assay addresses Angiopoietin-1 receptor (Homo sapiens, UniProt Q02763). As to the kind of experiment: Inhibition of human TIE2.
A short description of assay [21]: Cytotoxicity against human NCI60 cells by SBR assay. The class given is functional.
Assay [22] is described as follows: Growth inhibition of human NCI60 cells by SBR assay. The class given is functional.

Sequence of Vascular endothelial growth factor receptor 3 (P35916 whole entry): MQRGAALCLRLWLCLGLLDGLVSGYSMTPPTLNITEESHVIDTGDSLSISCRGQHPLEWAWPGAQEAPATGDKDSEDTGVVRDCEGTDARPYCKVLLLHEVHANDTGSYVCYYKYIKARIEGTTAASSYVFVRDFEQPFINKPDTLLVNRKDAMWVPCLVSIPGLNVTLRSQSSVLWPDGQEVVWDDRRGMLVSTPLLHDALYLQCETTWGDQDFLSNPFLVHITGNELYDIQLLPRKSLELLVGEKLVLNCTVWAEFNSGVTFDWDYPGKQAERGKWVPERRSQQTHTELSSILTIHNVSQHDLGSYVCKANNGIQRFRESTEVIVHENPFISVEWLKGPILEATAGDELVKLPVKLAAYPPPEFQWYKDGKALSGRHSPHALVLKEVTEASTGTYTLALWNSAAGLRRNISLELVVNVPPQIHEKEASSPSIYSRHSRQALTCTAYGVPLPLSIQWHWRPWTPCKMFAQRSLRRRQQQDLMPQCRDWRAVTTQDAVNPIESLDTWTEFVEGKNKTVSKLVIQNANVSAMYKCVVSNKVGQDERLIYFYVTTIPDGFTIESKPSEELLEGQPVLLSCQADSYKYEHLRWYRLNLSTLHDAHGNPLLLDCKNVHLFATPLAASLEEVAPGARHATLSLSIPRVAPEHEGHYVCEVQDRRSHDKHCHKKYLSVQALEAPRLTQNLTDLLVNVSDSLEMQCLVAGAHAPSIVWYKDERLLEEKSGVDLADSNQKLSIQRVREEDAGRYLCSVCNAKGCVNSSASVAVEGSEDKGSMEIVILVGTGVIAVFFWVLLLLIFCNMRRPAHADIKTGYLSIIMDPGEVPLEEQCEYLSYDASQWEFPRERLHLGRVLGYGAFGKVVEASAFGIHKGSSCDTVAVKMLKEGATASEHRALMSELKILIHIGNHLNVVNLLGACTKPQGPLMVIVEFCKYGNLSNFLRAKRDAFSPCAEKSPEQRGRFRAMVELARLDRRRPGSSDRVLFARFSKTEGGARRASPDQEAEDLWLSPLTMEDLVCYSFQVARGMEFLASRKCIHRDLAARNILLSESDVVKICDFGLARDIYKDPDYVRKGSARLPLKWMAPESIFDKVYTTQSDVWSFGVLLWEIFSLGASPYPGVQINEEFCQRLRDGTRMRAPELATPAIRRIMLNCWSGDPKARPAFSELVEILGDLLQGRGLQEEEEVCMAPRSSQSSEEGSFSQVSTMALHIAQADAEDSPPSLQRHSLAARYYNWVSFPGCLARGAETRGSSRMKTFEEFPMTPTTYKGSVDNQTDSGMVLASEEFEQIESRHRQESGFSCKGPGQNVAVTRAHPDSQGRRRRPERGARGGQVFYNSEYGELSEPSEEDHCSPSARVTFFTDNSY
Sequence of Insulin-like growth factor 1 receptor (P08069 31-736 limits assumed): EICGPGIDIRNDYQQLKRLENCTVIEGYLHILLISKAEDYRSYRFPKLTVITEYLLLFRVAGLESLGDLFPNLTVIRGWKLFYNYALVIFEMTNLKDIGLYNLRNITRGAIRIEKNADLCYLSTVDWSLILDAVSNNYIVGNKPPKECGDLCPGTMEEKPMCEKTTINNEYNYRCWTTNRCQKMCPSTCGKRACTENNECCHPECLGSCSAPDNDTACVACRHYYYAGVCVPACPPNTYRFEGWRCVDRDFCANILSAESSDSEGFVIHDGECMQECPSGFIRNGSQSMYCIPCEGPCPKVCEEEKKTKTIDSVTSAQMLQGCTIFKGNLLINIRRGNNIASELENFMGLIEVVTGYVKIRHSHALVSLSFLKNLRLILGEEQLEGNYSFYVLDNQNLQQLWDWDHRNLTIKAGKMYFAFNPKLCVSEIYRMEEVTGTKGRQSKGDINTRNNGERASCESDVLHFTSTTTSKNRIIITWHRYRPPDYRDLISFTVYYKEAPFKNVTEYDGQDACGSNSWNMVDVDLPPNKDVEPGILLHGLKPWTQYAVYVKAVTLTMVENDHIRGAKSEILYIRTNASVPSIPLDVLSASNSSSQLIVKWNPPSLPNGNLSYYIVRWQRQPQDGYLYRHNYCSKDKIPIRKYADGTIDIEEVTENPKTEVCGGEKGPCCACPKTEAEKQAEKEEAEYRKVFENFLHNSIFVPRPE
Sequence of Insulin-like growth factor 1 receptor (P08069 741-1367 limits assumed): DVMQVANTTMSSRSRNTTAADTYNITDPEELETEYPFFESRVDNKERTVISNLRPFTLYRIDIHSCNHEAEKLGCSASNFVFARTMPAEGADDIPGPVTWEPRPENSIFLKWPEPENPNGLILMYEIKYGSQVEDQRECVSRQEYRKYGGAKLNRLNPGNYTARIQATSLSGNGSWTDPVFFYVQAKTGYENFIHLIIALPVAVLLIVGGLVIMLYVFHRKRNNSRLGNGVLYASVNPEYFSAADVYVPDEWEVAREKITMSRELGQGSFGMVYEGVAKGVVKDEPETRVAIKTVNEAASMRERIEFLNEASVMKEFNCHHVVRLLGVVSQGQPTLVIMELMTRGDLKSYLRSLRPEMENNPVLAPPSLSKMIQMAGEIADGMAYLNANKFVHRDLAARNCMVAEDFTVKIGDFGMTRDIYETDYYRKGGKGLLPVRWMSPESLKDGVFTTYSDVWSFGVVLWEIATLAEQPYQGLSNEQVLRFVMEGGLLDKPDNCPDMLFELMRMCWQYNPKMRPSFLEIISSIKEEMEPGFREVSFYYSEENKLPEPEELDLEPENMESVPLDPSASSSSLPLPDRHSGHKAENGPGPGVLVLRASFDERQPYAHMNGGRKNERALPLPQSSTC
Sequence of Focal adhesion kinase 1 (Q05397 whole entry): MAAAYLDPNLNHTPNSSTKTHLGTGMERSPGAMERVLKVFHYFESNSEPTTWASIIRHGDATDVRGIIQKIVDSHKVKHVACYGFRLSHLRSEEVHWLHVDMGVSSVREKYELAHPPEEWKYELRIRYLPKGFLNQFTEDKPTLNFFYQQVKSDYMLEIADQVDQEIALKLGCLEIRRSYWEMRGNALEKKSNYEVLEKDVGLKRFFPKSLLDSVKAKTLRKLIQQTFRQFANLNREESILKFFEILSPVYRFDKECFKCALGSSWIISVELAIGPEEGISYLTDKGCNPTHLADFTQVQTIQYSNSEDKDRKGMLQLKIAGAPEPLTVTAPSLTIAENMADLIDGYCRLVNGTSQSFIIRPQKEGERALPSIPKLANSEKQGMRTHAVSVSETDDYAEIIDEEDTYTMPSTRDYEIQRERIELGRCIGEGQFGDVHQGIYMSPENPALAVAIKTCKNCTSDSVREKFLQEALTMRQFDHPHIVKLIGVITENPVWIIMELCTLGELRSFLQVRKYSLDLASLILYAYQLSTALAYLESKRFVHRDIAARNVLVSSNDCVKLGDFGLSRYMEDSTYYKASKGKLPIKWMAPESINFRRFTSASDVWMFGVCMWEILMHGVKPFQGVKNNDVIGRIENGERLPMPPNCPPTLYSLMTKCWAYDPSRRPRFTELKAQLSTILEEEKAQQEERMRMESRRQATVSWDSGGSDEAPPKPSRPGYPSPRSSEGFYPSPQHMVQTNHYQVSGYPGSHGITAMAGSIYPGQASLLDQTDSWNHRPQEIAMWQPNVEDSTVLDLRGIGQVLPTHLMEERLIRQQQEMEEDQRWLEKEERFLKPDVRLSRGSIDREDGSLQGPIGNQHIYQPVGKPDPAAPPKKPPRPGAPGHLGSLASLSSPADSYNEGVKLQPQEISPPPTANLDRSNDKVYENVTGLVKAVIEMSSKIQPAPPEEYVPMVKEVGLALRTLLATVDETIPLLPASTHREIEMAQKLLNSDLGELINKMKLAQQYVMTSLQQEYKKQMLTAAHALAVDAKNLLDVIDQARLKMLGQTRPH

On to `c1ccc(CNc2ccnc3oc4ccccc4c23)cc1`, for which the Ki in [1] was 1.09 µM; in assay [2] it was 0.47 µM; in assay [3] it was 0.59 µM; in assay [4] it was 0.37 µM.
For `c1ccc(CCNc2ccnc3oc4ccccc4c23)cc1` the same measures were 9.39 µM, 2.01 µM, 3.45 µM and 2.11 µM.
For `c1ccc2c(CNc3ccnc4oc5ccccc5c34)cccc2c1` the same measures were 1.09 µM, 0.3 µM, 0.68 µM and 0.57 µM.
Consider `COc1ccc(CNc2ccnc3oc4ccccc4c23)cc1`, for which the IC50 in assay [5] came to 271 µM; against LIM domain kinase 1, 759 µM; in [7], 129 µM; on Insulin receptor it was 622 µM; in assay [15], 392 µM; against CDK6/cyclin D1, 129 µM. The IC50 in assay [16] amounted to 182 µM; in assay [19] it was 376 µM; against Focal adhesion kinase 1, 194 µM. In addition, the Ki in assay [1], in assay [6], in [8], in assay [9], in [2] and in assay [10] was more than 1000 µM throughout. The Ki (in [11]; in assay [12]; in assay [13]; in [14]; at Aurora kinase C; in [17]) was more than 1000 µM throughout. Moreover, the Ki (in assay [18]; on Wee1-like protein kinase; on Misshapen-like kinase 1; on Aurora kinase A; in [20]; at Angiopoietin-1 receptor) was more than 1000 µM throughout. Moreover, the Ki in assay [4] stood at 0.15 µM.
Take `Clc1cccc(CNc2ccnc3oc4ccccc4c23)c1`: the Ki was more than 1000 µM in assay [1], more than 1000 µM in assay [2], more than 1000 µM in assay [3] and 0.58 µM in assay [4].
Consider `Clc1ccc(CNc2ccnc3oc4ccccc4c23)cc1`, for which the Ki in assay [1] worked out at 0.68 µM; in [2], 0.18 µM; in assay [3], 0.5 µM; in assay [4], 0.11 µM. The compound further showed an LC50 in [21] of more than 100 µM. This compound also had a GI50 in [22] of 33.9 µM.
Consider `c1cncc(CNc2ccnc3oc4ccccc4c23)c1`, for which the Ki in assay [1], in [2], in assay [3] and in assay [4] was more than 1000 µM throughout.
Compound `N[C@@H](Cc1ccc(N(CCCl)CCCl)cc1)C(=O)O` had a GI50 in assay [22] of 33.1 µM.
Same read-out and setting: then `COc1cc([C@@H]2c3cc4c(cc3[C@@H](O[C@@H]3O[C@@H]5CO[C@@H](C)O[C@H]5[C@H](O)[C@H]3O)[C@H]3COC(=O)[C@H]23)OCO4)cc(OC)c1O` [ETOPOSIDE], with 38.9 µM; and `CCc1c2c(nc3ccc(OC(=O)N4CCC(N5CCCCC5)CC4)cc13)-c1cc3c(c(=O)n1C2)COC(=O)[C@]3(O)CC` [IRINOTECAN], with 14.1 µM.

What is called Ki is the dissociation constant of the complex between target and ligand, obtained from inhibition or displacement. High values mean a looser hold on the target, low ones a stronger hold on the target. A word on the IC50: it is the concentration needed to halve the response being measured. A lower IC50 goes with inhibition by little substance. A word on the LC50: it is the concentration lethal to half of the exposed cells or organisms. Higher therefore signals a less lethal substance. One may read the GI50 as the concentration at which growth is held to half of that of the control. High values mean lower sensitivity of the cells, low ones greater sensitivity of the cells.

These data come from ChEMBL document CHEMBL1287713, “Discovery and selectivity-profiling of 4-benzylamino 1-aza-9-oxafluorene derivatives as lead structures for IGF-1R inhibitors” (Bioorg Med Chem Lett, 2010).
